According to paper PMC9508812 (2022):

Columns and labels:
[1] = tested on: d(CGG)10 (DNA, repeat) CGGCGGCGGCGGCGGCGGCGGCGGCGGCGG; test: CSI-TOF MS; details: NH4+ 100 mM (ammonium acetate); 50% aqueous methanol, spray -10 °C; 10 µM DNA, 50 µM NCD
[2] = tested on: GG1 (DNA, mismatch bulge abasic) CTAACGGAATG/CATTCGGTTAG; test: UV melting at 260 nm; details: Na+ 100 mM (NaCl); 10 mM sodium cacodylate pH 7.0; 5 µM DNA, 20 µM NCD; Tm without and with NCD
[3] = tested on: GG1 (DNA, mismatch bulge abasic) CTAACGGAATG/CATTCGGTTAG; test: CD; details: Na+ 100 mM (NaCl); 10 mM sodium cacodylate pH 7.0, room temperature; 5 µM DNA, 20 µM NCD
[4] = tested on: GG1 (DNA, mismatch bulge abasic) CTAACGGAATG/CATTCGGTTAG; test: NMR structure and titration; details: Na+ 100 mM (NaCl); 20 mM sodium phosphate pH 6.8, 283 K; slow exchange, cooperative
[5] = tested on: GG1 (DNA, mismatch bulge abasic) CTAACGGAATG/CATTCGGTTAG; test: ITC; details: Na+ 100 mM (NaCl), 10 mM sodium cacodylate pH 7.0, 25 °C, 2.5 µM DNA, 50 µM NCD titrant
[6] = tested on: GG1 with a T4 hairpin loop (DNA, mismatch bulge abasic) CTAACGGAATGTTTTCATTCGGTTAG; test: CSI-TOF MS; details: NH4+ 100 mM (ammonium acetate); 50% aqueous methanol, spray -10 °C; 5 µM DNA, 100 µM NCD; 1:1 complex not observed

binding [1]: yes
Tm [2]: 21.8 °C
binding [3]: yes
binding [4]: yes
apparent KD [5]: 67 nM
binding [6]: yes
Compound: Cc1ccc2ccc(NC(=O)OCCCNCCCOC(=O)Nc3ccc4ccc(C)nc4n3)nc2n1
